These results are taken from publication PMC12735921, “Evaluation of Antiproliferative Activity and Molecular Modeling Studies of Some Novel Benzimidazolone-Bridged Hybrid Compounds” (Pharmaceuticals, 2025).

Test [1] has as its system A549 cells. In words: Cell cycle analysis (PI staining, flow cytometry), A549. The test is classed as cell-based, human. Conditions: A549, IC50 concentration, 48 h, mean ± SEM, n = 3. As for the experimental part:
(§1) Cell cycle distribution was assessed by propidium iodide (PI) staining and flow cytometry. HeLa, MCF-7, and A549 cells were seeded in 6-well plates at a density of 1 × 10^5 cells per well and allowed to attach overnight. […] Following exposure, both adherent and floating cells were collected, washed twice with cold phosphate-buffered saline (PBS, pH 7.4), and fixed overnight in 70% cold ethanol at 4 °C. After fixation, the cells were centrifuged and resuspended in 500 µL of PI/RNase staining solution containing 50 µg/mL PI and 100 µg/mL RNase A (Sigma-Aldrich®, St. Louis, MO, USA), followed by incubation in the dark for 30 min at 37 °C. The stained samples were analyzed using a Muse™ Cell Analyzer (Merck, Millipore, Germany) equipped with a 488 nm excitation laser and a 617 nm emission filter. A minimum of 10,000 events per sample were acquired after exclusion of debris and doublets via FSC-A vs. FSC-H gating. The DNA content histograms were generated automatically, and cell populations were expressed as percentages of G0/G1, S, and G2/M phases using the Muse™ Cell Cycle Analysis Software 1.5.0.0. All assays were conducted in triplicate biological repeats (n = 3), and results were reported as mean ± SEM.

Test [2] concerns HEK 293 cells. The test can be described thus: MTT cell viability assay, non-cancerous HEK 293. It is filed as cell-based, human. As to conditions: Homo sapiens, HEK293, 48 h, mean ± SD, n = 3. The essentials: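 Cells grown in DMEM/10% FBS were seeded at 1 × 10^5 cells/mL and exposed to compounds at 0.5–200 µM for 48 h. Formazan was dissolved in DMSO and read at 570 nm, with cytotoxicity expressed relative to untreated control (0%). IC50 came from a four-parameter logistic fit, averaged over three independent runs.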

In test [3] the test system is A549, MCF-7, and HeLa cells. The test can be described thus: MTT cell viability assay, ranges stated across the cancer cell lines. Conditions: Homo sapiens, range over the three cancer cell lines, 48 h. It is filed as cell-based. As for the experimental part: Cell viability assay was performed on the human lung cancer (A549) (ATCC CCL-185), human breast cancer (MCF-7) (ATCC-HTB-22), cervical cancer (HeLa) (ATCC-CCL-2), and human embryonic kidney 293 (HEK293) (ATCC-CRL-1573) cell lines, which were purchased from Deutsche Sammlung von Mikroorganismen und Zellkulturen (DSMZ, Braunschweig, Germany). The cells were maintained in Dulbecco’s modified Eagle’s medium (DMEM), supplemented with 10% fetal bovine serum (FBS), 2 mM L-glutamine, 100 U/mL penicillin, and 100 mg/L streptomycin (Biochrom AG, Berlin, Germany) at 37 °C in a humidified atmosphere of 5% CO2.
The cytotoxic effect was determined by the MTT (3-(4,5-dimethyl-2-thiazolyl)-2,5-diphenyl-2H-tetrazolium bromide) cell viability assay. Cells were seeded at an initial concentration of 1 × 10^5 cells/mL in 96-well microplates. […] After the incubation period, the formed formazan crystals were dissolved in dimethyl sulfoxide (DMSO), and the optical density (OD) of the compounds was measured at 570 nm using a spectrophotometer (BMG Labtech, Ortenberg, Germany). Cytotoxicity was expressed as an increase in the mean percentage of cytotoxicity relative to the unexposed control ± standard deviation (SD). […] IC50 was calculated by fitting the data to a sigmoidal curve using a four-parameter logistic model and was presented as an average of three independent measurements. […]
For orientation: Formazan colour is commonly taken as a measure of viable cells.

For test [4], the system named is A549 cells. In words: MTT cell viability assay, A549. It is filed as cell-based, human. In a few lines: (§2)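 Cells exposed to compounds at 0.5–200 µM for 48 h in DMEM with 10% FBS at 37 °C, 5% CO2; formazan dissolved in DMSO and read at 570 nm. Cytotoxicity relative to untreated control; IC50 from four-parameter logistic fit, mean of three independent measurements, triplicate samples.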

The subject of test [5] is HeLa cells. In words: Total oxidative status (TOS), HeLa. It is filed as cell-based, human. As to conditions: IC50 concentration of compound, 48 h, H2O2 250 µM positive control, mean ± SD, n = 3.
Test [6] deals with A549 cells. The test can be described thus: LDH leakage assay, A549. The test is classed as cell-based, human. Conditions: A549, IC50 concentration of compound, 48 h; H2O2 positive control; mean ± SD, n = 3. As for the experimental part:
(§3) One hundred microliters of culture medium was transferred to a new 96-well plate. One hundred microliters of LDH reaction solution was added to each well, and absorbance was measured at 490 nm using an ELISA plate reader (BMG Labtech, Ortenberg, Germany) after 30 min.
In general terms: Release of lactate dehydrogenase indicates damage to the cell membrane.

The test system of test [7] is HeLa cells. The test can be described thus: MTT cell viability assay, HeLa. The test is classed as cell-based, human. The essentials:
as §2

The subject of test [8] is MCF-7 cells. In words: Total oxidative status (TOS), MCF-7. The test is classed as cell-based, human. Conditions: MCF-7, IC50 concentration of compound, 48 h; H2O2 250 µM positive control; mean ± SD, n = 3. As for the experimental part: TOS were evaluated using a commercially available kit (Rel Assay Diagnostics®, Gaziantep, Turkey) according to the manufacturer’s instructions. […] The TOS assay quantifies oxidizing agents based on their ability to convert an iron (II) ion chelator complex to iron (III) ions. The results were calibrated against hydrogen peroxide (H2O2, 250 µM) as a positive control for 48 h and expressed as µmol H2O2 equivalents per liter. The analysis was performed in three independent biological replicates (n = 3).

Test [9] relates to MCF-7 cells. In words: Cell cycle analysis (PI staining, flow cytometry), MCF-7. The test is classed as cell-based, human. Conditions: MCF-7, IC50 concentration, 48 h, mean ± SEM, n = 3. As for the experimental part: as §1
Background: In flow cytometry, cells or beads pass a laser one at a time.

The subject of test [10] is HeLa cells. The test can be described thus: LDH leakage assay, HeLa. Conditions: IC50 concentration of compound, 48 h, H2O2 positive control, mean ± SD, n = 3. The test is classed as cell-based, human. As for the experimental part:
as §3

Values joined by “and” are separate entries in the source; they are usually repeats but may differ in a detail not shown here. Equal entries are not always repeated.

As a reminder, the IC50 is the concentration at which inhibition is half-maximal. Consider `O=C(O)Cn1c(=O)n(CC(=O)O)c2cc(Cl)c(Cl)cc21` [Compound 6, 2,2′-(5,6-Dichloro-2-oxo-1H-benzo[d]imidazole-1,3(2H)-diyl)diacetic Acid], for which the “cells in G0/G1 phase” value in test [1] turned out to be 59.8 ± 2.0%; in test [9], 66.1 ± 1.9%. Moreover, the “cells in G2/M phase” value in test [1] came out at 19.6 ± 1.4%; in [9], 14.9 ± 1.3%. The “cells in S phase” value amounted to 20.6 ± 1.5% in [1] and 19.0 ± 1.4% in test [9]. The IC50 in [2] was 62.7 ± 3.62 µM; in test [3] it was 28.3 to 31.2 µM; in test [4] (Homo sapiens, A549, MTT, 48 h, mean ± SD, n = 3), 30.6 ± 1.76 µM; in test [7] (Homo sapiens, HeLa, MTT, 48 h, mean ± SD, n = 3) it was 31.2 ± 1.8 µM. In test [4] (SI = IC50 (HEK 293)/IC50 (A549)), the “A549 Selectivity Index (SI)” value is reported as 2.04. Also, the TOS in test [5] was 7.8 ± 0.6 µmol H2O2 eq/L and 7.8 ± 0.6 ^a,b µmol H2O2 eq/L; in test [8], 6.9 ± 0.5 µmol H2O2 eq/L and 6.9 ± 0.5 ^a,b µmol H2O2 eq/L. Moreover, the LDH in test [6] is 24.5 ± 2.0 µU/mL and 24.5 ± 2.0 ^a,b µU/mL; in [10] it was 27.3 ± 2.5 µU/mL and 27.3 ± 2.5 ^a,b µU/mL. For the same molecule, the “HeLa Selectivity Index (SI)” value in test [7] (SI = IC50 (HEK 293)/IC50 (HeLa)) amounted to 2.
